Measurements from article doi:10.1101/2025.03.14.643404, “A Bivalent Molecular Glue Linking Lysine Acetyltransferases to Oncogene-induced Cell Death” (bioRxiv, 2025).

Tests used:
FLAG-tagged BCL6 = target: T1, FLAG-tagged BCL6 (Homo sapiens, UniProt P41182+Q09472+Q92793); experiment: FLAG IP-MS in FLAG-tagged BCL6 knock-in SUDHL5; assay type: cell-based; conditions: FLAG-BCL6 SUDHL5, 1 nM, 2 h
T1 construct: endogenous in cells; host or cells: SUDHL5, CRISPR genomic knock-in at the BCL6 stop codon
T1 sequence (Q92793 2-2442 limits assumed, other chains not shown): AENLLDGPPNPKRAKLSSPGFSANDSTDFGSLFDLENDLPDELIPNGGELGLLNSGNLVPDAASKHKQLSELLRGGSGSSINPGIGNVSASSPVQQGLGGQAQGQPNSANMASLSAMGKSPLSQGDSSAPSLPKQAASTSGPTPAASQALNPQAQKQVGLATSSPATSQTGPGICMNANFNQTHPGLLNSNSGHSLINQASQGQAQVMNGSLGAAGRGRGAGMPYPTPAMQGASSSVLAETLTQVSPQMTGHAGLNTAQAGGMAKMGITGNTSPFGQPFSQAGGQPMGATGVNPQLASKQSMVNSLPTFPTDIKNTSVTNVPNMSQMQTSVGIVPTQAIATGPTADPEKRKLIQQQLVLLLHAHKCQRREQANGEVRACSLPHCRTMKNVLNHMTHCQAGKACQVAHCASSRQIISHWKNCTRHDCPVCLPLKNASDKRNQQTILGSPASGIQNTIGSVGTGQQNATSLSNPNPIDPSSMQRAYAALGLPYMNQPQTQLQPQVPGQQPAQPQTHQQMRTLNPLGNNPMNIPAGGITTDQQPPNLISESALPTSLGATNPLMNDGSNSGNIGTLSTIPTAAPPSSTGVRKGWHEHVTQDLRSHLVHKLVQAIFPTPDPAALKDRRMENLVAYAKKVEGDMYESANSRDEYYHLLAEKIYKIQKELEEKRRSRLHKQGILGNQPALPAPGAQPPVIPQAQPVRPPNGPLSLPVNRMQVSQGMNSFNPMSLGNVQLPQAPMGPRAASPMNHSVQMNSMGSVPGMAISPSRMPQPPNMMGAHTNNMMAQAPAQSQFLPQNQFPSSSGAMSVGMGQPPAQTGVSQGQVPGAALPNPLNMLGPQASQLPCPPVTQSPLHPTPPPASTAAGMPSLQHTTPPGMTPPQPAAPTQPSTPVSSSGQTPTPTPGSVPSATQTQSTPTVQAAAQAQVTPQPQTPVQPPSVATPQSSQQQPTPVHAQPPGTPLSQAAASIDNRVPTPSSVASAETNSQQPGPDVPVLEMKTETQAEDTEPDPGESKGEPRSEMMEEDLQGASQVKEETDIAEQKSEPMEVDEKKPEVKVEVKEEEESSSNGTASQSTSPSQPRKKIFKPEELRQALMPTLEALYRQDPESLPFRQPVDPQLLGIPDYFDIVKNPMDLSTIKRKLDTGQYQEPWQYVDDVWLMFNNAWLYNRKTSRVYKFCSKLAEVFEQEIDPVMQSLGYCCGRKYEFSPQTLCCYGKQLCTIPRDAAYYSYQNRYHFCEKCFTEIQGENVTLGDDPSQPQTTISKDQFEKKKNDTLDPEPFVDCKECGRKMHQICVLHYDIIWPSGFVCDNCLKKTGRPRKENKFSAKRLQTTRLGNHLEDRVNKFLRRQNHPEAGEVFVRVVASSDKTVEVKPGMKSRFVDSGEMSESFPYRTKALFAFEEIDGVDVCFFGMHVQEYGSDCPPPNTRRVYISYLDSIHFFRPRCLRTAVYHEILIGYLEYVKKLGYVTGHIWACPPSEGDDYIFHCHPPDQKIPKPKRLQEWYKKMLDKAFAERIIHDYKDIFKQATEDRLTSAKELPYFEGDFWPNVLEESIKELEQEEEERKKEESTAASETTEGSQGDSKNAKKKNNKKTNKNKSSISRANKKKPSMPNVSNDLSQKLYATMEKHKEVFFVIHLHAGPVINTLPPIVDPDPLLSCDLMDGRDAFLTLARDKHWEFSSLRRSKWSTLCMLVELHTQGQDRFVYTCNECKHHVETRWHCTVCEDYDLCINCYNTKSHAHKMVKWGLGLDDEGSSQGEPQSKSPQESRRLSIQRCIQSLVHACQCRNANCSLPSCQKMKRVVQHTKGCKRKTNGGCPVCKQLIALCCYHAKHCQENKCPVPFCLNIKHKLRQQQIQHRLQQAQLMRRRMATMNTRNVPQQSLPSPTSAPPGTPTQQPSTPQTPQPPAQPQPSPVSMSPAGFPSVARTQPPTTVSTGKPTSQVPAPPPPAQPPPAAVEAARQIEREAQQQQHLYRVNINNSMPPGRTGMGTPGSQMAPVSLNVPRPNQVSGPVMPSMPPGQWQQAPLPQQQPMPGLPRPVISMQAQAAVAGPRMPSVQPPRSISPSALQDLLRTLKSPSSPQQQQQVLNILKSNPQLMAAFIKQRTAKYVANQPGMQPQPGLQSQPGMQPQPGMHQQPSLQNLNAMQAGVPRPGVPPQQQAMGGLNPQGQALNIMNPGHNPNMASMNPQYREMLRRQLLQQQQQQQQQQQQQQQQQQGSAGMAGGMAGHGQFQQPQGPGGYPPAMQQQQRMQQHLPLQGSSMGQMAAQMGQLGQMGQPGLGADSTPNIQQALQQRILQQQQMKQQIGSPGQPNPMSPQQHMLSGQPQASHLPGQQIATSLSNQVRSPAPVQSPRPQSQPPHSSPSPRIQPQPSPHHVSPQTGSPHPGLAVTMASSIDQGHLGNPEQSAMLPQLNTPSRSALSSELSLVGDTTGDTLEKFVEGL
T1 sequence (Q09472 2-2414 limits assumed, other chains not shown): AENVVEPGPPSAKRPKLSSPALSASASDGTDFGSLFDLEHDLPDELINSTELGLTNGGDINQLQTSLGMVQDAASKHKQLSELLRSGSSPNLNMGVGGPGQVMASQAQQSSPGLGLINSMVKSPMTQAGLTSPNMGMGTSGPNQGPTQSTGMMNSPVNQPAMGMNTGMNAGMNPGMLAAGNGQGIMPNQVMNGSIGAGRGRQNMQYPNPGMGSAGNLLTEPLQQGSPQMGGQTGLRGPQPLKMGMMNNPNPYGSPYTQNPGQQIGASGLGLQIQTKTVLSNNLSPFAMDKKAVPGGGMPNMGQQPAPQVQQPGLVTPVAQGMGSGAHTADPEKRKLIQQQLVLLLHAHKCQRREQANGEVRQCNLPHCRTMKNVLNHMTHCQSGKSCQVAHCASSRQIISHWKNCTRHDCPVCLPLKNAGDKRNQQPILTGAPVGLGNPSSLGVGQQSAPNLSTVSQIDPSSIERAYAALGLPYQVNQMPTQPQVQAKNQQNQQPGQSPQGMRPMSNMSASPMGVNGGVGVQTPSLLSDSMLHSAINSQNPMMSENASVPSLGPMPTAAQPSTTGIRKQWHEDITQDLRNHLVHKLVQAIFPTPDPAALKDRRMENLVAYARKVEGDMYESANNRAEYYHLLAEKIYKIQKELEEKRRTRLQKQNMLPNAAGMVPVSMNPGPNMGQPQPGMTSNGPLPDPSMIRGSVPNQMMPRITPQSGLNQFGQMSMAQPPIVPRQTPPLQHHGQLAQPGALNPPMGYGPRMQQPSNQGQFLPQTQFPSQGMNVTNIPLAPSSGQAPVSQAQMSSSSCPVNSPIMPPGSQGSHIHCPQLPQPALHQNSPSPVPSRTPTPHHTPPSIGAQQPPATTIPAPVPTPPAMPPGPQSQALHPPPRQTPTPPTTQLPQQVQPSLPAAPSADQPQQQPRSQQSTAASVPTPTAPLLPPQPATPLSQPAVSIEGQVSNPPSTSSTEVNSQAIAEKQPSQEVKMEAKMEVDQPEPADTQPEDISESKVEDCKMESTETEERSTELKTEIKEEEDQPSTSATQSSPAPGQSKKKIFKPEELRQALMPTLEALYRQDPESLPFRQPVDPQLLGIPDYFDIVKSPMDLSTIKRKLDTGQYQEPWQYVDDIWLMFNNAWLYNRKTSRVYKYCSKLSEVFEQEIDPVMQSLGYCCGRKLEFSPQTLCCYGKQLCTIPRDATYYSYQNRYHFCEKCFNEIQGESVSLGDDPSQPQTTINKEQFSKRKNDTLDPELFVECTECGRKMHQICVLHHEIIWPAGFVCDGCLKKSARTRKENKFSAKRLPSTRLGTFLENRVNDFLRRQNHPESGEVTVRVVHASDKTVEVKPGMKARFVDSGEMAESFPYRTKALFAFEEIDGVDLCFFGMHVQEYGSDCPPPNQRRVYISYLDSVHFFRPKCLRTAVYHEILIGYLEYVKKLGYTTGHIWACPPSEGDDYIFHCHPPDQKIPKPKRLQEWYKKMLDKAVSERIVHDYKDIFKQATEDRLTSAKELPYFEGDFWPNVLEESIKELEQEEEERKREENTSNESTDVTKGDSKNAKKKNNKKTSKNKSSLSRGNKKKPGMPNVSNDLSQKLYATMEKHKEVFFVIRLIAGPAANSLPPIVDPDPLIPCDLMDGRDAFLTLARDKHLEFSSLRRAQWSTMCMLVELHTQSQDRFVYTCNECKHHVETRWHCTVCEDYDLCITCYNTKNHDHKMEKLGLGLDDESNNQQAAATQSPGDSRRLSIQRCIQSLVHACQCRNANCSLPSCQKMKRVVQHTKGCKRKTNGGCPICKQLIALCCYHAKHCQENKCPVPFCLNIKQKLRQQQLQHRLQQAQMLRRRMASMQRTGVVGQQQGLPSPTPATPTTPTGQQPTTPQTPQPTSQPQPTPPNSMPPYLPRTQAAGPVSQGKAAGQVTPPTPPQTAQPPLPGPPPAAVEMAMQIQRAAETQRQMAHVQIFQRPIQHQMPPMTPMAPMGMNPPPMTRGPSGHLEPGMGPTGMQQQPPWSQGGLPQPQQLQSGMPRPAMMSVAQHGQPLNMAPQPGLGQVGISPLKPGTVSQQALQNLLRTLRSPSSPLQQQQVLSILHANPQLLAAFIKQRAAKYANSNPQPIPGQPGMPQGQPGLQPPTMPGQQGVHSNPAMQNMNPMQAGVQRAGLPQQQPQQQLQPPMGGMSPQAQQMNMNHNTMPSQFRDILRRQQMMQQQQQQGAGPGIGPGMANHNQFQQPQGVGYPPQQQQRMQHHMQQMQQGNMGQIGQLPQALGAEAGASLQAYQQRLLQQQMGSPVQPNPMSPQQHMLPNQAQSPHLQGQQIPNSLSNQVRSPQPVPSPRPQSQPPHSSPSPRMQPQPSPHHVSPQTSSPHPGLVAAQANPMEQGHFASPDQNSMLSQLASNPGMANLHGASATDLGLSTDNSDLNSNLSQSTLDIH
Experimental: 50 million FLAG-BCL6 knock-in SUDHL5 cells were treated compound or DMSO (0.1%) at indicated doses for 2 hours. Cells were lysed in NE10 buffer (20 mM HEPES (pH 7.5), 10 mM KCl, 1 mM MgCl2, 0.1% Triton X-100 (v/v), protease inhibitors (Roche), 15 mM ß-mercaptoethanol), dounced 15 times and pelleted 5 min at 500 g. Nuclei were washed in NE10 buffer and then digested with 250 units benzonase (Millipore) for 30 min rotating at 25°C. Nuclei were resuspended in NE150 buffer (NE10 supplemented with 150mM NaCl) and incubated for 20 min. Lysates were pelleted at 16,000 g for 20 min at 4°C and supernatants were immunoprecipitated by incubating with 2.5 μg FLAG M2 antibody (F1804, Millipore-Sigma) or 2.5 μg p300 (A300–358A, Bethyl Laboratories) antibody with Dynabeads Protein G (Thermo Fisher) overnight at 4°C. The IP fraction was recovered by magnetic separation followed by three washes with NE10 buffer containing 150mM–300mM NaCl but without Triton-X. For mass spectrometry analysis, the IP was then eluted from the beads with Ammonium Hydroxide, pH 11–12; 3% v/v. […]
The reconstituted desalted peptides were then analyzed using a nanoElute 2 UHPLC (Bruker Daltonics, Bremen, Germany) coupled to a timsTOF HT (Bruker Daltonics, Bremen, Germany) via a CaptiveSpray nano-electrospray source. […]

c-MYC = experiment: RNA-seq, c-MYC transcripts in SUDHL5; assay type: cell-based, human; conditions: SUDHL5, 1 nM, 2 hours
Experimental: Cells were plated at 1M/mL and harvested in TRIsure (Bioline 38033). RNA was extracted using Direct-zol RNA MicroPrep columns (Zymo R2062) treated with DNAseI. cDNA was prepared (Meridian Bioscience BIO-65054) and used for qPCR (Meridian Bioscience BIO-94050) using an AppliedBiosystems QuantStudio 6Pro. Primer sequences were the following:
For sequencing library preparation, rRNA was depleted (NEB E7400) and total RNA prepared into paired-end libraries (NEB E7765) and indexed (NEB E7335). Library size distributions were confirmed using an Agilent Bioanalyzer and High Sensitivity DNA reagents (Agilent 5067) and concentrations determined by qPCR. […]
Raw reads were checked for quality using fastqc (https://www.bioinformatics.babraham.ac.uk/projects/fastqc/) and trimmed from adapters using cutadapt[111] using parameters cutadapt -a […] -b […] --nextseq-trim=20 --minimum-length 1. Transcripts were quantified using kallisto[112] against the human Gencode v33 indexed transcriptome and annotations. […] Re-processed published datasets from the Sequence Read Archive (SRA) were the following: TCIP1 – SRX20228454, SRX20228455, SRX202284546, SRX20228457, SRX20228458, SRX20228459, SRX20228448, SRX20228449, SRX20228450; CDK-TCIP1 – SRX22117221, SRX22117222, SRX22117223, SRX22117224, SRX22117225, SRX22117226, SRX22117227, SRX22117228, SRX22117229).

With `CNC(=O)COc1cc2cc(Nc3nc(N4CCC(C(=O)N5CCN(CCC(=O)N6CCC(n7nc(N8CCCc9cc(-c%10cnn(C)c%10)c(C(F)F)cc98)c8c7CCN(C(=O)NC)C8)CC6)CC5)CC4)ncc3Cl)cc(OC)c2n(C)c1=O` [TCIP3] the “enrichment of CBP in FLAG-BCL6 IP, log2(fold change)” value (FLAG-tagged BCL6; vs DMSO) was 3.7, the “enrichment of p300 in FLAG-BCL6 IP, log2(fold change)” value (FLAG-tagged BCL6; no peptides in DMSO, imputed) was 3.7 and the “c-MYC mRNA log2(fold change)” value (c-MYC) was −2.71.
